Values quoted from earlier work in article PMC12498271, “A First-In-Human Dose-Escalation Phase I Study of Basroparib, a Tankyrase Inhibitor, in Patients with Advanced-Stage Solid Tumors” (Cancer Research Communications, 2025).

Columns and labels:
[1] = GLP toxicology study in rat; cited from earlier work
TNKS2 = settings: read-out: active against TNKS2; cited from earlier work
TNKS1 = settings: read-out: active against TNKS1; cited from earlier work
[2] = test system: colorectal cancer xenograft models using APC-mutant cell lines and patient-derived colorectal cancer cells; settings: monotherapy; cited from earlier work

Q: With `COCCOc1cc(F)c(N2CCN(c3nc4c(nnn4C)c(=O)[nH]3)CC2)c(F)c1` [basroparib] as the compound, how does the GI toxicity [1] read?
A: has not been seen inducing any GI toxicity

Q: What about the IC50 (TNKS2) of the same compound?
A: 3.2 nM

Q: And the IC50 (TNKS1)?
A: 5.8 nM

Q: And the tumor growth inhibition [2]?
A: ≤ 64%
